pIC50: −log10 of the molar value. Converted amounts (≈) assume the structure as drawn. The source made the active and inactive calls. The calls are words filed in the database; no cut-off is given here.

In assay [1] the test system is Pseudomonas aeruginosa. The assay can be described thus: Antibacterial activity against Pseudomonas aeruginosa NCIM-2036 by standard agar method. It counts as functional.
Assay [2] concerns Candida albicans. In words: Antibiofilm activity against Candida albicans assessed as inhibition of biofilm formation after […] by Field emission scanning electron microscopy. It counts as functional, organism-based.
The subject of assay [3] is Candida albicans. The assay can be described thus: Antifungal activity against Candida albicans NCIM-3471 by standard agar method. It counts as functional.
The subject of assay [4] is Bacillus subtilis. In words: Antibacterial activity against Bacillus subtilis NCIM-2063 by standard agar method. In kind it is functional.
Assay [5] relates to Pseudomonas aeruginosa. In words: Antibiofilm activity against Pseudomonas aeruginosa PAO1 after 18 hrs by crystal violet staining based spectroscopy. It counts as functional, organism-based. The settings on record: PAO1, 18 h.
In assay [6] the test system is Staphylococcus aureus. The assay can be described thus: Antibacterial activity against Staphylococcus aureus NCIM-2901 by standard agar method. In kind it is functional.
In assay [7] the test system is Candida albicans. The assay can be described thus: Antibiofilm activity against Candida albicans after 24 hrs by MTT assay. It counts as functional, organism-based.
The test system of assay [8] is Pseudomonas aeruginosa. In words: Antibiofilm activity against Pseudomonas aeruginosa assessed as inhibition of biofilm formation after […] by Field emission scanning electron microscopy. It counts as functional, organism-based.

Turning to `COc1ccc2cc(C3C4=C(CC(C)(C)CC4=O)n4c(=O)c5ccccc5c(=O)n43)c(Cl)nc2c1` (stereo not drawn), the MIC was determined as 110 mg/L (≈ 225 µM) in assay [1], 57.5 mg/L (≈ 118 µM) in assay [3], 98.5 mg/L (≈ 202 µM) in assay [4] and 102 mg/L (≈ 209 µM) in assay [6]. The inhibition entry in assay [2] is “Active”. Besides, the figures for the negative logarithm of the IC50 (pIC50) in assay [5] and in assay [7] were 4.23 and 4.46, respectively.
As to `Cc1ccc2nc(Cl)c(C3C4=C(CC(C)(C)CC4=O)n4c(=O)c5ccccc5c(=O)n43)cc2c1` (stereo not drawn), the MIC is 150 mg/L (≈ 318 µM) in assay [1], 175 mg/L (≈ 371 µM) in assay [3], 158 mg/L (≈ 334 µM) in assay [4] and 77.5 mg/L (≈ 164 µM) in assay [6]. The results for the pIC50 in assay [5] and in assay [7] were 4.33 and 4.29, respectively.
With `Cc1ccc2cc(C3C4=C(CC(C)(C)CC4=O)n4c(=O)c5ccccc5c(=O)n43)c3nnnn3c2c1` (stereo not drawn), the minimal inhibitory concentration (MIC) in assay [1] stood at 102 mg/L (≈ 213 µM); in assay [3] it was 55 mg/L (≈ 115 µM); in assay [4], 158 mg/L (≈ 329 µM); in assay [6] it was 112 mg/L (≈ 234 µM). Also, the figures for the pIC50 in assay [5] and in assay [7] were 4.29 and 4.17, respectively.
For `Cc1cccc2cc(C3C4=C(CC(C)(C)CC4=O)n4c(=O)c5ccccc5c(=O)n43)c3nnnn3c12` (stereo not drawn), the MIC was 84.5 mg/L (≈ 177 µM) in assay [1], 175 mg/L (≈ 366 µM) in assay [3], 170 mg/L (≈ 355 µM) in assay [4] and 91.5 mg/L (≈ 191 µM) in assay [6]. In addition, the pIC50 in assay [5] and in assay [7] was 4.21 each time.
Take `COc1ccc2nc(Cl)c(C3C4=C(CC(C)(C)CC4=O)n4c(=O)c5ccccc5c(=O)n43)cc2c1` (stereo not drawn): the minimum inhibitory concentration (MIC) is 205 mg/L (≈ 420 µM) in assay [1], 55 mg/L (≈ 113 µM) in assay [3], 57.5 mg/L (≈ 118 µM) in assay [4] and 77.5 mg/L (≈ 159 µM) in assay [6]. Besides, the results for the pIC50 in assay [5] and in assay [7] were 4.13 and 4.44, respectively.
The compound `O=C(O)c1cn(C2CC2)c2cc(N3CCNCC3)c(F)cc2c1=O` [CIPROFLOXACIN] gave an MIC in assay [1] of 50 mg/L (≈ 151 µM). This compound also had a pIC50 in assay [5] of 4.33.
Turning to `COc1ccc2cc(C3C4=C(CC(C)(C)CC4=O)n4c(=O)c5ccccc5c(=O)n43)c3nnnn3c2c1` (stereo not drawn), the minimal inhibitory concentration (MIC) in assay [1] is 250 mg/L (≈ 506 µM); in assay [3], 220 mg/L (≈ 445 µM); in assay [4], 168 mg/L (≈ 340 µM); in assay [6], 195 mg/L (≈ 394 µM). Besides, the negative-log IC50 (pIC50) in assay [5] was 4.14; in assay [7] it was 4.36.
On to `CC1(C)CC(=O)C2=C(C1)n1c(=O)c3ccccc3c(=O)n1C2c1cc2ccccc2n2nnnc12` (stereo not drawn), for which the minimum inhibitory concentration (MIC) in assay [1] was found to be 68.5 mg/L (≈ 147 µM); in assay [3], 112 mg/L (≈ 242 µM); in assay [4], 100 mg/L (≈ 215 µM); in assay [6], 85 mg/L (≈ 183 µM). Moreover, the figures for the pIC50 in assay [5] and in assay [7] were 4.18 and 4.31, respectively.
Take `Cc1ccc2c(c1)cc(C1C3=C(CC(C)(C)CC3=O)n3c(=O)c4ccccc4c(=O)n31)c1nnnn12` (stereo not drawn): the MIC amounted to 67.5 mg/L (≈ 141 µM) in assay [1], 67.5 mg/L (≈ 141 µM) in assay [3], 158 mg/L (≈ 329 µM) in assay [4] and 225 mg/L (≈ 470 µM) in assay [6]. The pIC50 in assay [5] is 4.19; in assay [7] it was 4.15.
Take `OC(Cn1cncn1)(Cn1cncn1)c1ccc(F)cc1F` [FLUCONAZOLE]: in assay [3], the MIC was 50 mg/L (≈ 163 µM). This compound also had a pIC50 in assay [7] of 4.40.
Take `Cc1cccc2cc(C3C4=C(CC(C)(C)CC4=O)n4c(=O)c5ccccc5c(=O)n43)c(Cl)nc12` (stereo not drawn): the MIC in assay [1] came out at 120 mg/L (≈ 254 µM); in assay [3], 50 mg/L (≈ 106 µM); in assay [4], 142 mg/L (≈ 302 µM); in assay [6], 67.5 mg/L (≈ 143 µM). The pIC50 was 4.18 in assay [5] and 4.43 in assay [7].
Take `COc1ccc2c(c1)cc(C1C3=C(CC(C)(C)CC3=O)n3c(=O)c4ccccc4c(=O)n31)c1nnnn12` (stereo not drawn): the minimum inhibitory concentration (MIC) in assay [1] worked out at 67.5 mg/L (≈ 136 µM); in assay [3], 195 mg/L (≈ 394 µM); in assay [4], 188 mg/L (≈ 379 µM); in assay [6] it was 225 mg/L (≈ 455 µM). Further, the pIC50 in assay [5] is 4.33; in assay [7] it was 4.09.
As for `CC1(C)CC(=O)C2=C(C1)n1c(=O)c3ccccc3c(=O)n1C2c1cc2ccccc2nc1Cl` (stereo not drawn), the MIC in assay [1] was determined as 45 mg/L (≈ 98.3 µM); in assay [3], 125 mg/L (≈ 273 µM); in assay [4] it was 148 mg/L (≈ 324 µM); in assay [6], 178 mg/L (≈ 390 µM). Besides, the pIC50 in assay [5] was 4.52; in assay [7] it was 4.10. The inhibition entry in assay [8] was “Active”.
With `Cc1ccc2cc(C3C4=C(CC(C)(C)CC4=O)n4c(=O)c5ccccc5c(=O)n43)c(Cl)nc2c1` (stereo not drawn), the MIC in assay [1] stood at 185 mg/L (≈ 392 µM); in assay [3], 112 mg/L (≈ 238 µM); in assay [4], 87.5 mg/L (≈ 185 µM); in assay [6], 70 mg/L (≈ 148 µM). In addition, the negative-log IC50 (pIC50) in assay [5] is 4.29; in assay [7], 4.31.

A word on the MIC: it is the lowest concentration found to suppress growth. What is called pIC50 is the IC50 on a negative log10 scale, so that one unit is a factor of ten. Low values mean a high IC50, high ones a low IC50.

These data come from ChEMBL document CHEMBL3779777, “Novel amalgamation of phthalazine-quinolines as biofilm inhibitors: One-pot synthesis, biological evaluation and in silico ADME prediction with favorable metabolic fate” (Bioorg Med Chem Lett, 2016).
